Patent US9616053B2, “Indolin-2-one or pyrrolo-pyridin/pyrimidin-2-one derivatives” (Hoffmann-La Roche Inc., priority 2013, dated 2017)

Legend:
[1] = test system: L-687,414-induced hyperlocomotion; experiment: L-687,414-induced hyperlocomotion (Digiscan locomotor activity); assay type: in vivo, mouse; details: Mus musculus, at the same time as s.c. 50 mg/kg L-687,414, mice; for inhibition at 30 mg/kg: dose ip 30 mg/kg
From the text: The authors described that hyperlocomotion induced by L-687,414 was inhibited by a series of known antipsychotic drugs. […] These findings predict antipsychotic activity for the present compounds, making them useful for the treatment of positive (psychosis) and negative symptoms of schizophrenia, substance abuse, alcohol and drug addiction, obsessive-compulsive disorders, cognitive impairment, bipolar disorders, mood disorders, major depression, resistant depression, anxiety disorders, Alzheimer's disease, autism, Parkinson's disease, chronic pain, borderline personality disorder, sleep disturbances, chronic fatigue syndrome, stiffness, antiinflammatory effects in arthritis and balance problems.
The described compounds of formula I reduce L-687,414-induced hyperlocomotion. This was assessed by using a computerized Digiscan 16 Animal Activity Monitoring System (Omnitech Electronics, Columbus, Ohio) to quantify locomotor activity. Animals were kept under a 12 h light/dark cycle and experiments were performed during the light period. Each activity monitoring chamber consisted of a Plexiglas box (41×41×28 cm; W×L×H) with sawdust bedding on the floor surrounded by invisible horizontal and vertical infrared sensor beams. The test boxes were divided by a Plexiglas cross providing each mouse with 20×20 cm of moving space. Cages were connected to a Digiscan Analyzer linked to a computer that constantly collected the beam status information. Records of photocell beam interruptions for individual animals were taken every 5 min over the duration of the experimental session and the sum of the first 6 periods was used as the final parameter. Compounds were administered either p.o. 15 min before a s.c. injection of 50 mg/kg of L-687,414, or i.p. at the same time as a s.c. injection of 50 mg/kg of L-687,414. Mice were then transferred from their home cage to the recording chambers for a 15-min habituation phase allowing free exploration of the new environment. Horizontal activity was then recorded for a 30-min time period. The % inhibition of L-687,414-induced hyperlocomotion was calculated according to the equation: ((Veh+L-687,414 horizontal activity−drug+L-687,414 horizontal activity)Veh+L-687,414 horizontal activity)×100
ID50 values, defined as doses of each compound producing 50% inhibition of L-687,414-induced hyperlocomotion, were calculated by linear regression analysis of a dose-response data using an Excel-based computer-fitting program.
As data was not presupposed to be normally distributed, groups treated with test compounds were statistically compared with the control (vehicle-treated) group using one-tailed Mann Whitney U tests. In statistics, the Mann-Whitney Utest (also called the Mann-Whitney-Wilcoxon (MWW) or Wilcoxon rank-sum test) is a non-parametric statistical hypothesis test for assessing whether one of two samples of independent observations tends to have larger values than the other. It is one of the most well-known non-parametric significance tests. […] P values given in table 1 are one-tailed since only decreases in locomotion were expected and tested for (Mann, H. B., Whitney, D. R. (1947), “On a Test of Whether one of Two Random Variables is Stochastically Larger than the Other”, Annals of Mathematical Statistics, 18 (1), 50-60).

[2] = test system: behaviors of compound-treated mice; experiment: SmartCube behavioral signature and similarity analysis; assay type: in vivo; parameters: key to discrimination rate vs Clozapine / discrimination rate vs Olanzapine / discrimination rate vs Risperidone: discrimination rate as fraction; 0.5 = zero distinguishability; details: 25 mg/kg i.p.; for SmartCube behavioral signature: compared with reference drug classes; for discrimination rate vs Clozapine / discrimination rate vs Olanzapine / discrimination rate vs Risperidone: rate of 0.70 or lower = similar
From the text: In addition to the reversal of L-687,414 induced hyperlocomotion experiment as described above, some compounds of the present invention have been tested in SmartCube®, an automated system in which the behaviors of compound-treated mice in response to multiple challenges are captured by digital video and analyzed with computer algorithms (Roberds et al., Frontiers in Neuroscience, 2011, Vol. 5, Art. 103, 1-4). In this way, the neuro-pharmacological effects of a test compound can be predicted by similarity to major classes of compounds, such as antipsychotics, anxiolytics and antidepressants.
As mentioned above, some compounds have been tested in SmartCube®, an analytical system developed by PsychoGenics Inc.
SmartCube® was used to compare the behavioral signature of a test compound to a database of behavioral signatures obtained from a large set of clinically approved reference drugs, grouped per indications. In this way, the neuro-pharmacological effects of a test compound can be predicted by similarity to major classes of compounds, such as antipsychotics, anxiolytics and antidepressants. This approach is ideally suited to screen collections of existing drugs or drug candidates with previously unknown neuropharmacology, which could expedite the development of new and unexpected treatments for psychiatric disorders.
Some compounds of the present invention were injected i.p. at different doses 15 minutes before the test. At least 8 mice were used in each treatment group. Digital videos of the subjects were processed with computer vision algorithms to extract over 2000 dependent measures including frequency and duration of many different behavioral states. The results of the classifications are presented as bar charts for each compound and dose (mg/kg), the Y-axis indicates the relative probability that the test compound will show efficacy in the specific CNS indication.
Compounds of the present invention show similar signatures to those of atypical antipsychotics. An independent analysis was performed on the unclassified data to determine the similarity of the example compounds to active doses of known atypical antipsychotics. For this analysis, we use discrimination rate as the measure of separability between the two drugs, i.e. one drug's “distinguishability” from another. A rate equal to 50% (or 0.5) corresponds to zero distinguishability. […] In most cases, the example compounds show a similarity to risperidone, clozapine and olanzapine with a discrimination rate of ≦0.70.

Structure (SMILES) | inhibition at 30 mg/kg [1] | other results
CN1C(=O)C(C)(C)c2ccc(-c3cccnn3)cc21 [Example 13, 1,3,3-Trimethyl-6-(pyridazin-3-yl)indolin-2-one] | 76.9% | SmartCube behavioral signature [2]: similarity to atypical antipsychotics; discrimination rate vs Clozapine [2]: 0.69; discrimination rate vs Olanzapine [2]: 0.70; discrimination rate vs Risperidone [2]: 0.72
Cc1ncc(-c2ccc3c(c2)N(CCCS(=O)(=O)C2CC2)C(=O)C3(C)C)cn1 [Example 54, 1-(3-(Cyclopropylsulfonyl)propyl)-3,3-dimethyl-6-(2-methylpyrimidin-5-yl)indolin-2-one] | – | SmartCube behavioral signature [2]: similarity to atypical antipsychotics; discrimination rate vs Clozapine [2]: 0.69; discrimination rate vs Olanzapine [2]: 0.61; discrimination rate vs Risperidone [2]: 0.63
CC1(C)C(=O)Nc2cc(-n3ccnc3)ccc21 [Example 58, 6-Imidazol-1-yl-3,3-dimethyl-1,3-dihydro-indol-2-one] | – | SmartCube behavioral signature [2]: similarity to atypical antipsychotics; discrimination rate vs Clozapine [2]: 0.63; discrimination rate vs Olanzapine [2]: 0.69; discrimination rate vs Risperidone [2]: 0.66
Cc1ncc(-c2ccc3c(c2)N(C)C(=O)C3(C)C)o1 [Example 71, 1,3,3-Trimethyl-6-(2-methyloxazol-5-yl)indolin-2-one] | 68.5% | SmartCube behavioral signature [2]: similarity to atypical antipsychotics; discrimination rate vs Clozapine [2]: 0.79; discrimination rate vs Olanzapine [2]: 0.66; discrimination rate vs Risperidone [2]: 0.63
Cc1ncc(-c2cc3c(cn2)C(C)(C)C(=O)N3)cn1 [Example 92, 3,3-Dimethyl-6-(2-methylpyrimidin-5-yl)-1H-pyrrolo[3,2-c]pyridin-2-one] | 80.9% | –
Cc1nnc(-c2ccc3c(c2)N(C)C(=O)C3(C)C)o1 [Example 93, 1,3,3-Trimethyl-6-(5-methyl-1,3,4-oxadiazol-2-yl)indolin-2-one] | 68.6% | –
Cc1nnc(-c2ccc3c(c2)NC(=O)C3(C)C)o1 [Example 106, 3,3-Dimethyl-6-(5-methyl-1,3,4-oxadiazol-2-yl)indolin-2-one] | 75.7% | –
CC1(C)C(=O)Nc2cc(-c3cn(C4CC4)cn3)ccc21 [Example 113, 6-(1-Cyclopropyl-1H-imidazol-yl)-3,3-dimethylindolin-2-one] | 83.9% | –
Cc1cc(-c2ncc3c(n2)N(C2CC2)C(=O)C3(C)C)ccn1 [Example 114, 7-Cyclopropyl-5,5-dimethyl-2-(2-methylpyridin-4-yl)-5H-pyrrolo[2,3-d]pyrimidin-6(7H)-one] | – | inhibition at 20 mg/kg ([1]; dose ip 20 mg/kg): 42%
Cc1ncc(-c2ccc3c(c2)N(CCOC(F)(F)F)C(=O)C3(C)C)cn1 [Example 128, 3,3-Dimethyl-6-(2-methylpyrimidin-5-yl)-1(2-(trifluoromethoxy)ethyl)indolin-2-one] | 66.1% | –
Cc1ncc(-c2ccc3c(c2)N(CC2COC2)C(=O)C3(C)C)cn1 [Example 129, 3,3-Dimethyl-6-(2-methylpyrimidin-5-yl)-1-(oxetan-3-ylmethyl)indolin-2-one] | 95.5% | –
Cc1ncc(-c2ccc3c(c2)N(CC(O)C(F)(F)F)C(=O)C3(C)C)cn1 (centres unmarked) [Example 130, 3,3-Dimethyl-6-(2-methylpyrimidin-5-yl)-1-(3,3,3-trifluoro-2-hydroxypropyl)indolin-2-one] | 89.4% | –
Cc1ncc(-c2ccc3c(c2)N(CCCF)C(=O)C3(C)C)cn1 [Example 131, 1-(3-Fluoropropyl)-3,3-dimethyl-6-(2-methylpyrimidin-5-yl)indolin-2-one] | 95.3% | –
Cc1ncc(-c2ccc3c(c2)N(CCF)C(=O)C3(C)C)cn1 [Example 132, 1-(2-Fluoroethyl)-3,3-dimethyl-6-(2-methylpyrimidin-5-yl)indolin-2-one] | 95.3% | –
CCn1cnc(-c2ccc3c(c2)N(C)C(=O)C3(C)C)c1 [Example 133, 6-(1-Ethyl-1H-imidazol-4-yl)-1,3,3-trimethylindolin-2-one] | 44% | –
CN1C(=O)C(C)(C)c2ccc(-c3cn(CC(F)(F)F)cn3)cc21 [Example 134, 1,3,3-Trimethyl-6-(1-(2,2,2-trifluoroethyl)-1H-imidazol-4-yl)indolin-2-one] | 79.8% | –
Cc1cc(-c2cc3c(cn2)C2(CC2)C(=O)N3C)ccn1 [Example 136, 1′-Methyl-6′-(2-methylpyridin-4-yl)spiro[cyclopropane-1,3′-pyrrolo[3,2-c]pyridin]-2′(1′H)-one] | 89.7% | –
O=C1N(C2CC2)c2cc(-c3cccnc3)ncc2C12CC2 [Example 140, 1′-Cyclopropyl-6′-(pyridin-3-yl)spiro[cyclopropane-1,3′-pyrrolo[3,2-c]pyridin]-2′(1′H)-one] | 69.3% | –
Cc1cc(-c2ccc3c(c2)N(C)C(=O)C3(C)C)on1 [Example 143, 1,3,3-Trimethyl-6-(3-methylisoxazol-5-yl)indolin-2-one] | 65.7% | –
CC1(C)C(=O)Nc2cc(-n3cnc(C(O)C(F)(F)F)c3)ccc21 (centres unmarked) [Example 168, 3,3-Dimethyl-6-[4-(2,2,2-trifluoro-1-hydroxy-ethyl)imidazol-1-yl]indolin-2-one] | 77% | –
COCC(CN1C(=O)C(C)(C)c2ccc(-c3cnc(C)nc3)cc21)OC (centres unmarked) [Example 175, 1-(2,3-dimethoxypropyl)-3,3-dimethyl-6-(2-methylpyrimidin-5-yl)indolin-2-one] | 95.3% | –
